Results reported in ChEMBL document CHEMBL1201861, “Genomics of Drug Sensitity in Cancer screening data, Wellcome Trust Sanger Institute”.

system: ACN; test: cells; type: functional, cell-based, Homo sapiens; conditions: Homo sapiens, ACN;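 also: growth inhibition of the human ACN cell line, read out via cell viability testing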
Description: SANGER: Inhibition of human ACN cell growth in a cell viability assay.

SMILES	IC50 [µM]
NC(=O)c1cccc(-c2cc(Nc3ccc(OC(F)(F)F)cc3)ncn2)c1	> 1.28

system: MZ7-mel; test: cells; type: functional, cell-based, Homo sapiens; conditions: Homo sapiens, MZ7-mel;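 also: growth inhibition of human MZ7-mel cells, measured by a cell viability assay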
Description: SANGER: Inhibition of human MZ7-mel cell growth in a cell viability assay.

SMILES	IC50 [µM]
NC(=O)c1cccc(-c2cc(Nc3ccc(OC(F)(F)F)cc3)ncn2)c1	> 1.28

system: KURAMOCHI; test: cells; type: functional, cell-based, Homo sapiens; conditions: Homo sapiens, KURAMOCHI;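 also: growth inhibition of KURAMOCHI cells, read out with a cell viability assay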
Description: SANGER: Inhibition of human KURAMOCHI cell growth in a cell viability assay.

SMILES	IC50 [µM]
NC(=O)c1cccc(-c2cc(Nc3ccc(OC(F)(F)F)cc3)ncn2)c1	> 1.28

system: HCC2157; test: cells; type: functional, cell-based, Homo sapiens; conditions: Homo sapiens, HCC2157;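 also: growth inhibition of the cancer cell line, read out as cell viability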
Description: SANGER: Inhibition of human HCC2157 cell growth in a cell viability assay.

SMILES	IC50 [µM]
NC(=O)c1cccc(-c2cc(Nc3ccc(OC(F)(F)F)cc3)ncn2)c1	> 1.28

system: LAMA-84; test: cells; type: functional, cell-based, Homo sapiens; conditions: Homo sapiens, LAMA-84;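 also: growth inhibition of LAMA-84 cells, read out with a cell viability assay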
Description: SANGER: Inhibition of human LAMA-84 cell growth in a cell viability assay.

SMILES	IC50 [µM]
NC(=O)c1cccc(-c2cc(Nc3ccc(OC(F)(F)F)cc3)ncn2)c1	0.163

system: IST-SL1; test: cells; type: functional, cell-based, Homo sapiens; conditions: Homo sapiens, IST-SL1;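 also: growth inhibition of human IST-SL1 cells, read out with a cell viability assay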
Description: SANGER: Inhibition of human IST-SL1 cell growth in a cell viability assay.

SMILES	IC50 [µM]
NC(=O)c1cccc(-c2cc(Nc3ccc(OC(F)(F)F)cc3)ncn2)c1	> 1.28

system: C8166; test: cells; type: functional, cell-based, Homo sapiens; conditions: Homo sapiens, C8166;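 also: growth inhibition of human C8166 cells measured by a cell viability assay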
Description: SANGER: Inhibition of human C8166 cell growth in a cell viability assay.

SMILES	IC50 [µM]
NC(=O)c1cccc(-c2cc(Nc3ccc(OC(F)(F)F)cc3)ncn2)c1	> 1.28

system: CCRF-CEM; test: cells; type: functional, cell-based, Homo sapiens; conditions: Homo sapiens, CCRF-CEM;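 also: inhibition of CCRF-CEM cell growth, measured by a cell viability assay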
Description: SANGER: Inhibition of human CCRF-CEM cell growth in a cell viability assay.

SMILES	IC50 [µM]
NC(=O)c1cccc(-c2cc(Nc3ccc(OC(F)(F)F)cc3)ncn2)c1	> 1.28

system: LOX IMVI; test: cells; type: functional, cell-based, Homo sapiens; conditions: Homo sapiens, LOX IMVI
Description: SANGER: Inhibition of human LOXIMVI cell growth in a cell viability assay.

SMILES	IC50 [µM]
NC(=O)c1cccc(-c2cc(Nc3ccc(OC(F)(F)F)cc3)ncn2)c1	> 1.28

system: L-363; test: cells; type: functional, cell-based, Homo sapiens; conditions: Homo sapiens, L-363
Description: SANGER: Inhibition of human L-363 cell growth in a cell viability assay.

SMILES	IC50 [µM]
NC(=O)c1cccc(-c2cc(Nc3ccc(OC(F)(F)F)cc3)ncn2)c1	> 1.28

system: A498; test: cells; type: functional, cell-based, Homo sapiens; conditions: Homo sapiens, A498;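 also: growth inhibition of human A498 cells, read out with a cell viability assay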
Description: SANGER: Inhibition of human A498 cell growth in a cell viability assay.

SMILES	IC50 [µM]
NC(=O)c1cccc(-c2cc(Nc3ccc(OC(F)(F)F)cc3)ncn2)c1	> 1.28

system: NCI-H1155; test: cells; type: functional, cell-based, Homo sapiens; conditions: Homo sapiens, NCI-H1155;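 also: cell growth inhibition measured by a viability assay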
Description: SANGER: Inhibition of human NCI-H1155 cell growth in a cell viability assay.

SMILES	IC50 [µM]
NC(=O)c1cccc(-c2cc(Nc3ccc(OC(F)(F)F)cc3)ncn2)c1	> 1.28

system: SCC-15; test: cells; type: functional, cell-based, Homo sapiens; conditions: Homo sapiens, SCC-15;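 also: growth inhibition of SCC-15 cells, read out with a cell viability assay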
Description: SANGER: Inhibition of human SCC-15 cell growth in a cell viability assay.

SMILES	IC50 [µM]
NC(=O)c1cccc(-c2cc(Nc3ccc(OC(F)(F)F)cc3)ncn2)c1	> 1.28

system: SK-N-FI; test: cells; type: functional, cell-based, Homo sapiens; conditions: Homo sapiens, SK-N-FI;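 also: cell viability assay measuring growth inhibition of human SK-N-FI cells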
Description: SANGER: Inhibition of human SK-N-FI cell growth in a cell viability assay.

SMILES	IC50 [µM]
NC(=O)c1cccc(-c2cc(Nc3ccc(OC(F)(F)F)cc3)ncn2)c1	> 1.28

system: IST-MES1; test: cells; type: functional, cell-based, Homo sapiens; conditions: Homo sapiens, IST-MES1;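 also: growth inhibition of IST-MES1 cells, measured with a cell viability assay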
Description: SANGER: Inhibition of human IST-MES1 cell growth in a cell viability assay.

SMILES	IC50 [µM]
NC(=O)c1cccc(-c2cc(Nc3ccc(OC(F)(F)F)cc3)ncn2)c1	> 1.28

system: NCI-H23; test: cells; type: functional, cell-based, Homo sapiens; conditions: Homo sapiens, NCI-H23;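 also: cell viability assay measuring growth inhibition of NCI-H23 cells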
Description: SANGER: Inhibition of human NCI-H23 cell growth in a cell viability assay.

SMILES	IC50 [µM]
NC(=O)c1cccc(-c2cc(Nc3ccc(OC(F)(F)F)cc3)ncn2)c1	> 1.28

system: RPMI-8866; test: cells; type: functional, cell-based, Homo sapiens; conditions: Homo sapiens, RPMI-8866
Description: SANGER: Inhibition of human RPMI-8866 cell growth in a cell viability assay.

SMILES	IC50 [µM]
NC(=O)c1cccc(-c2cc(Nc3ccc(OC(F)(F)F)cc3)ncn2)c1	> 1.28

system: SK-UT-1; test: cells; type: functional, cell-based, Homo sapiens; conditions: Homo sapiens, SK-UT-1;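 also: growth inhibition of SK-UT-1 cells, measured by a cell viability assay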
Description: SANGER: Inhibition of human SK-UT-1 cell growth in a cell viability assay.

SMILES	IC50 [µM]
NC(=O)c1cccc(-c2cc(Nc3ccc(OC(F)(F)F)cc3)ncn2)c1	> 1.28

system: ES4; test: cells; type: functional, cell-based, Homo sapiens; conditions: Homo sapiens, ES4;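 also: growth inhibition of human ES4 cells, read out by a cell viability assay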
Description: SANGER: Inhibition of human ES4 cell growth in a cell viability assay.

SMILES	IC50 [µM]
NC(=O)c1cccc(-c2cc(Nc3ccc(OC(F)(F)F)cc3)ncn2)c1	> 1.28

system: SNU-5; test: cells; type: functional, cell-based, Homo sapiens; conditions: Homo sapiens, SNU-5;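 also: cell viability readout used to measure growth inhibition in human NCI-SNU-5 cells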
Description: SANGER: Inhibition of human NCI-SNU-5 cell growth in a cell viability assay.

SMILES	IC50 [µM]
NC(=O)c1cccc(-c2cc(Nc3ccc(OC(F)(F)F)cc3)ncn2)c1	> 1.28

system: BB30-HNC; test: cells; type: functional, cell-based, Homo sapiens; conditions: Homo sapiens, BB30-HNC;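 also: growth inhibition of the cultured cell line, read out by a cell viability assay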
Description: SANGER: Inhibition of human BB30-HNC cell growth in a cell viability assay.

SMILES	IC50 [µM]
NC(=O)c1cccc(-c2cc(Nc3ccc(OC(F)(F)F)cc3)ncn2)c1	> 1.28

system: NCI-H226; test: cells; type: functional, cell-based, Homo sapiens; conditions: Homo sapiens, NCI-H226;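 also: cell viability read-out used to gauge growth inhibition of the cells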
Description: SANGER: Inhibition of human NCI-H226 cell growth in a cell viability assay.

SMILES	IC50 [µM]
NC(=O)c1cccc(-c2cc(Nc3ccc(OC(F)(F)F)cc3)ncn2)c1	> 1.28

system: HD-MY-Z; test: cells; type: functional, cell-based, Homo sapiens; conditions: Homo sapiens, HD-MY-Z;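 also: growth inhibition of HD-MY-Z cells, read out with a cell viability assay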
Description: SANGER: Inhibition of human HD-MY-Z cell growth in a cell viability assay.

SMILES	IC50 [µM]
NC(=O)c1cccc(-c2cc(Nc3ccc(OC(F)(F)F)cc3)ncn2)c1	> 1.28

system: SBC-1; test: cells; type: functional, cell-based, Homo sapiens; conditions: Homo sapiens, SBC-1;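 also: cell viability assay measuring growth inhibition of the SBC-1 cell line, IC50 being the concentration that halves growth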
Description: SANGER: Inhibition of human SBC-1 cell growth in a cell viability assay.

SMILES	IC50 [µM]
NC(=O)c1cccc(-c2cc(Nc3ccc(OC(F)(F)F)cc3)ncn2)c1	1

system: DU-4475; test: cells; type: functional, cell-based, Homo sapiens; conditions: Homo sapiens, DU-4475
Description: SANGER: Inhibition of human DU-4475 cell growth in a cell viability assay.

SMILES	IC50 [µM]
NC(=O)c1cccc(-c2cc(Nc3ccc(OC(F)(F)F)cc3)ncn2)c1	> 1.28

system: LS-513; test: cells; type: functional, cell-based, Homo sapiens; conditions: Homo sapiens, LS-513
Description: SANGER: Inhibition of human LS-513 cell growth in a cell viability assay.

SMILES	IC50 [µM]
NC(=O)c1cccc(-c2cc(Nc3ccc(OC(F)(F)F)cc3)ncn2)c1	> 1.28

system: Mo; test: cells; type: functional, cell-based, Homo sapiens; conditions: Homo sapiens, Mo
Description: SANGER: Inhibition of human Mo-T cell growth in a cell viability assay.

SMILES	IC50 [µM]
NC(=O)c1cccc(-c2cc(Nc3ccc(OC(F)(F)F)cc3)ncn2)c1	> 1.28

system: no-10; test: cells; type: functional, cell-based, Homo sapiens; conditions: Homo sapiens;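 also: growth inhibition of no-10 cells, read out with a cell viability assay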
Description: SANGER: Inhibition of human no-10 cell growth in a cell viability assay.

SMILES	IC50 [µM]
NC(=O)c1cccc(-c2cc(Nc3ccc(OC(F)(F)F)cc3)ncn2)c1	> 1.28

system: LB2241-RCC; test: cells; type: functional, cell-based, Homo sapiens; conditions: Homo sapiens, LB2241-RCC;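 also: cell viability assay measuring how strongly the cultured human renal carcinoma line is prevented from growing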
Description: SANGER: Inhibition of human LB2241-RCC cell growth in a cell viability assay.

SMILES	IC50 [µM]
NC(=O)c1cccc(-c2cc(Nc3ccc(OC(F)(F)F)cc3)ncn2)c1	> 1.28

system: 697; test: cells; type: functional, cell-based, Homo sapiens; conditions: Homo sapiens
Description: SANGER: Inhibition of human 697 cell growth in a cell viability assay.

SMILES	IC50 [µM]
NC(=O)c1cccc(-c2cc(Nc3ccc(OC(F)(F)F)cc3)ncn2)c1	> 1.28

system: MONO-MAC-6; test: cells; type: functional, cell-based, Homo sapiens; conditions: Homo sapiens, MONO-MAC-6;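 also: cell viability assay measuring growth inhibition of human MONO-MAC-6 cells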
Description: SANGER: Inhibition of human MONO-MAC-6 cell growth in a cell viability assay.

SMILES	IC50 [µM]
NC(=O)c1cccc(-c2cc(Nc3ccc(OC(F)(F)F)cc3)ncn2)c1	> 1.28

system: OS-RC-2; test: cells; type: functional, cell-based, Homo sapiens; conditions: Homo sapiens, OS-RC-2;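 also: growth inhibition of human OS-RC-2 cells, measured by a cell viability assay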
Description: SANGER: Inhibition of human OS-RC-2 cell growth in a cell viability assay.

SMILES	IC50 [µM]
NC(=O)c1cccc(-c2cc(Nc3ccc(OC(F)(F)F)cc3)ncn2)c1	> 1.28

system: NCI-H1650; test: cells; type: functional, cell-based, Homo sapiens; conditions: Homo sapiens, NCI-H1650;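 also: growth inhibition of human NCI-H1650 cells measured by a cell viability assay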
Description: SANGER: Inhibition of human NCI-H1650 cell growth in a cell viability assay.

SMILES	IC50 [µM]
NC(=O)c1cccc(-c2cc(Nc3ccc(OC(F)(F)F)cc3)ncn2)c1	> 1.28

system: SK-PN-DW; test: cells; type: functional, cell-based, Homo sapiens; conditions: Homo sapiens, SK-PN-DW;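 also: growth inhibition measured with a viability assay on these cells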
Description: SANGER: Inhibition of human SK-PN-DW cell growth in a cell viability assay.

SMILES	IC50 [µM]
NC(=O)c1cccc(-c2cc(Nc3ccc(OC(F)(F)F)cc3)ncn2)c1	> 1.28

system: HH; test: cells; type: functional, cell-based, Homo sapiens; conditions: Homo sapiens, HH
Description: SANGER: Inhibition of human HH cell growth in a cell viability assay.

SMILES	IC50 [µM]
NC(=O)c1cccc(-c2cc(Nc3ccc(OC(F)(F)F)cc3)ncn2)c1	> 1.28

system: MV4-11; test: cells; type: functional, cell-based, Homo sapiens, MV-4-11; conditions: Homo sapiens, MV4-11;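 also: cell viability readout measuring growth inhibition of human MV-4-11 cells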
Description: SANGER: Inhibition of human MV-4-11 cell growth in a cell viability assay.

SMILES	IC50 [µM]
NC(=O)c1cccc(-c2cc(Nc3ccc(OC(F)(F)F)cc3)ncn2)c1	> 1.28

system: KM-H2; test: cells; type: functional, cell-based, Homo sapiens; conditions: Homo sapiens, KM-H2;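 also: growth inhibition of KM-H2 cells, read out by a cell viability assay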
Description: SANGER: Inhibition of human KM-H2 cell growth in a cell viability assay.

SMILES	IC50 [µM]
NC(=O)c1cccc(-c2cc(Nc3ccc(OC(F)(F)F)cc3)ncn2)c1	> 1.28

system: DOHH-2; test: cells; type: functional, cell-based, Homo sapiens; conditions: Homo sapiens, DOHH-2;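 also: growth inhibition of human DOHH-2 cells, read out with a cell viability assay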
Description: SANGER: Inhibition of human DOHH-2 cell growth in a cell viability assay.

SMILES	IC50 [µM]
NC(=O)c1cccc(-c2cc(Nc3ccc(OC(F)(F)F)cc3)ncn2)c1	> 1.28

system: HCE-T; test: cells; type: functional, cell-based, Homo sapiens; conditions: Homo sapiens, HCE-T;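 also: cell viability assay read-out, reporting inhibition of HCE-T cell growth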
Description: SANGER: Inhibition of human HCE-T cell growth in a cell viability assay.

SMILES	IC50 [µM]
NC(=O)c1cccc(-c2cc(Nc3ccc(OC(F)(F)F)cc3)ncn2)c1	> 1.28

system: IA-LM; test: cells; type: functional, cell-based; conditions: Homo sapiens;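 also: cell viability assay measuring growth inhibition of human IA-LM cells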
Description: SANGER: Inhibition of human IA-LM cell growth in a cell viability assay.

SMILES	IC50 [µM]
NC(=O)c1cccc(-c2cc(Nc3ccc(OC(F)(F)F)cc3)ncn2)c1	> 1.28

system: NH-12; test: cells; type: functional, cell-based, Homo sapiens; conditions: Homo sapiens, NH-12;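 also: growth inhibition of NH-12 cells, read out with a cell viability assay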
Description: SANGER: Inhibition of human NH-12 cell growth in a cell viability assay.

SMILES	IC50 [µM]
NC(=O)c1cccc(-c2cc(Nc3ccc(OC(F)(F)F)cc3)ncn2)c1	> 1.28

system: JVM-2; test: cells; type: functional, cell-based, Homo sapiens; conditions: Homo sapiens, JVM-2;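 also: growth inhibition of JVM-2 cells determined by a cell viability assay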
Description: SANGER: Inhibition of human JVM-2 cell growth in a cell viability assay.

SMILES	IC50 [µM]
NC(=O)c1cccc(-c2cc(Nc3ccc(OC(F)(F)F)cc3)ncn2)c1	> 1.28

system: ONS-76; test: cells; type: functional, cell-based, Homo sapiens; conditions: Homo sapiens, ONS-76;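 also: growth inhibition of human ONS-76 cells, read out with a cell viability assay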
Description: SANGER: Inhibition of human ONS-76 cell growth in a cell viability assay.

SMILES	IC50 [µM]
NC(=O)c1cccc(-c2cc(Nc3ccc(OC(F)(F)F)cc3)ncn2)c1	> 1.28

system: 8-MG-BA; test: cells; type: functional, cell-based, Homo sapiens; conditions: Homo sapiens, 8-MG-BA;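 also: growth inhibition of 8-MG-BA cells, read out with a cell viability assay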
Description: SANGER: Inhibition of human 8-MG-BA cell growth in a cell viability assay.

SMILES	IC50 [µM]
NC(=O)c1cccc(-c2cc(Nc3ccc(OC(F)(F)F)cc3)ncn2)c1	> 1.28

system: MHH-PREB-1; test: cells; type: functional, cell-based, Homo sapiens; conditions: Homo sapiens, MHH-PREB-1;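 also: cell viability assay measuring inhibition of proliferation of human MHH-PREB-1 cells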
Description: SANGER: Inhibition of human MHH-PREB-1 cell growth in a cell viability assay.

SMILES	IC50 [µM]
NC(=O)c1cccc(-c2cc(Nc3ccc(OC(F)(F)F)cc3)ncn2)c1	> 1.28

system: NCI-H720; test: cells; type: functional, cell-based, Homo sapiens; conditions: Homo sapiens, NCI-H720;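 also: growth inhibition of human NCI-H720 cells determined by a cell viability assay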
Description: SANGER: Inhibition of human NCI-H720 cell growth in a cell viability assay.

SMILES	IC50 [µM]
NC(=O)c1cccc(-c2cc(Nc3ccc(OC(F)(F)F)cc3)ncn2)c1	> 1.28

system: JAR; test: cells; type: functional, cell-based, Homo sapiens; conditions: Homo sapiens, JAR;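 also: growth inhibition of human JAR cells determined with a cell viability assay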
Description: SANGER: Inhibition of human JAR cell growth in a cell viability assay.

SMILES	IC50 [µM]
NC(=O)c1cccc(-c2cc(Nc3ccc(OC(F)(F)F)cc3)ncn2)c1	> 1.28
